According to patent US20230295728A1, “METHODS FOR DIAGNOSING AND TREATING AUTISM” (CENTRE NATIONAL DE LA RECHERCHE SCIENTIFIQUE (CNRS), priority 2020, published 2023):
Entries after “also recorded” stand apart in the source; their conditions may differ.

Assays:
B6D2 and Balb c males = tested on: B6D2 and Balb c males
Procedure: The control group received the same volume (0.1 ml) of 0.9% saline buffer. At 14 days post birth, all offspring (8-12 pups from each litter) were injected (intraperitoneally) with VPA at […] or with saline buffer as a control. […] The F1 to F2 generations were obtained following treatment with the 300 to 500 mg/kg VPA doses. The F1 generation derived from VPA-injected F0 fathers is referred to as VPA-F1, while that from saline-injected fathers is identified as the control. Adult VPA-F1 males were bred with normal females.
VPA is known to perturb brain formation during early development^22 and to induce characteristic traits of ASD pathology^23,24. […] We treated the animals after birth rather than treating pregnant females as in previous studies^23,24 to avoid the multiple effects on embryonic development generated via the mothers during pregnancy as well as the effects on germ cells. […] In contrast, the injection of pregnant females often leads to an unpredicted arrest of embryonic development and mortality of the mothers either during pregnancy or after the birth of their progenies.
The spermatogonial stem cells that will continuously divide and differentiate throughout the life of the male are present, leaving open the possibility that some changes in transcript levels may be transmitted to the next generation.

Balb c mice [1] = assay: Social interaction test (three chambers); format: in vivo, mouse
Procedure: To determine whether these interactions varied between the groups of mice, they were filmed for 5 minutes. There are many different ways to follow social interaction. Here, we present the results in a simple way based on conditions in a cage separated into three sections. The mice being tested were placed in the center of the cage and were filmed to calculate the time that they spent close to the empty compartment or the compartment occupied by another mouse. The three chambers were separated by square doors in the two inner walls connecting to the center area. Briefly, the test mouse was introduced in the center to initiate habituation for 5 minutes while blocking access to the side compartments. The first test was conducted by placing an unfamiliar mouse inside an empty wire cage in one of the side chambers to measure the social interaction of the subject mouse without direct social contact. On the other side, there was an empty wire cage. Each test was performed for 10 minutes (data not shown), and the floor surfaces were wiped with 70% ethanol between trials. The accumulated time spent in each compartment and the sociability or social preference indices were measured to quantify the social behavior of the mice.

Balb c mice [2] = assay: Tail suspension test; format: in vivo, mouse
Procedure: Adult mice (2 months old) (Balb c strain) weighing 25-27 g on the test day. The apparatus used for the tail test consisted of two filter covers each and enabled three mice to be tested simultaneously. Each mouse was suspended by the tail from a hook connected to the strain gauge, to which they were attached with adhesive tape with a length of 18 cm. The duration of each trial was 360 seconds. The tail suspension test was recorded using a SONY HDR-CX240E video recorder. […] An immobility posture indicates the abandonment of struggling and, thus, depression. Periods of agitation and immobility are reported (data not shown).

Balb c mice [3] = assay: Novel object recognition test; format: in vivo, mouse
From the text: The time spent with familiar versus novel objects highlighted a common characteristic of the test group versus the controls. Specifically, it indicated differences in the interest in and recognition of objects. NOR (novel object recognition) is a well-established test in a variety of animal models with multiple protocols. In general, it involves two trials of cognition evaluation based on the spontaneous exploratory conduct of a mouse to measure recognition memory. In the first trial, we used (first-day acquisition) animals that were exposed to two similar objects (small orange boxes) in a chamber for 5 minutes. During the second trial (second-day retention) mice were again exposed to two dissimilar objects for 5 minutes, including one familiar object from the first trial and one new object (blue box). Object recognition was measured (data not shown), according to the difference in the time spent with the familiar object versus the new object.

Balb c mice [4] = assay: Open field and Morris water tests; format: in vivo, mouse; conditions: 500 mg/kg VPA group (data not shown)
Balb c mice [5] = assay: Glass marble burying test; format: in vivo, mouse
Procedure: According to the described protocols, newly filled bedding cages were prepared with 20 marbles spaced on the bedding surface. Mice were individually caged. After 30 minutes, each mouse was returned to its home cage, and the buried marbles were counted (data not shown). Marbles that were not buried were not included in the analysis.

[6] = tested on: six-microRNAs (miR-19a-3p, miR-361-5p, miR-3613-3p, miR-150-5p, miR-126-3p, miR-499a-5p); assay: miRNA analysis of the mouse models (q-PCR of blood, sperm, hippocampus RNA); format: in vivo; conditions: VPA-treated mice (500 mg/kg)
Procedure: Routine qPCR for miR detection and validation^41 was performed with the miScript PCR control set (catalog number 218380; Qiagen, Germany). The miScript™ miRNA PCR Array Human Serum & Plasma 384HC (Cat No: 331223) was used in this study. The Human Serum & Plasma 384HC miScript miRNA PCR Array profiles the expression of 372 miRNAs) that are detectable in serum and plasma using the miScript PCR system. SNORD61, SNORD68, SNORD72, SNORD95, SNORD96A, RNU6-2, miRTC, miRTC, and PPC were used as controls. The data were normalized using the 2^−ΔΔct method.
Total RNA was prepared from mouse tissues (blood, hippocampus, sperm) according to published procedures^42. Sperm cells were isolated from the epididymis, and floating sperm were recovered by successive washing (PBS) and centrifugation at 3000 rpm. Briefly, RNAs were extracted from all tissues (hippocampus, blood and sperm cells) via a standard protocol. Qiazol Lysis Buffer (Cat. No: 79306; Qiagen, Texas, USA) was used in accordance with the manufacturer's instructions. The Qiazol-extracted aqueous phase was ethanol precipitated, followed by washing twice with 70% ethanol. To remove the remaining DNA, the PCR samples were treated with DNase according to the manufacturer's instructions.

CCCC(CCC)C(=O)O [VPA, valproic acid]
sudden mortality (B6D2 and Balb c males; 500 mg/kg i.p., males): without sudden mortality
mortality / lethality at high doses (B6D2 and Balb c males; 600-700 mg/kg, one i.p. injection at 14 days post birth, both mouse lines): dramatic lethality; also recorded: sudden dramatic mortality; also recorded: lethal
breeding behaviour, fertility, testes (B6D2 and Balb c males; mouse, in vivo, 500 mg/kg): a few males became aggressive toward females during breeding, showed reduced fertility and smaller testes
overall activity in social interaction tests (Balb c mice [1]; 500 mg/kg VPA group): decrease in overall activity
time spent close to chamber with mouse versus empty chamber (Balb c mice [1]; 500 mg/kg, treated males): showed less interest and spent an even smaller amount of time close to the empty cage
immobility / struggle-related behaviour (Balb c mice [2]; 500 mg/kg, F0 treated males): a significant change that indicated abandonment and depression was observed
immobility / struggle-related behaviour (Balb c mice [2]; F1 generation of VPA-treated fathers, compared to F0): the reverse effect was observed
time spent with familiar versus novel objects (Balb c mice [3]; 400 mg/kg, only for familiar objects): Some effect was detectable
time spent with familiar versus novel objects (Balb c mice [3]; 500 mg/kg, treated males): lost interest and spent the same amount of time with the two objects but spent less time overall with both objects
overall activity (Balb c mice [4]): decrease in the overall activity as well by half
marbles buried in 30 minutes (Balb c mice [5]; 500 mg/kg VPA F1 generation): the same behavior as in the founders, with significantly less activity
marbles buried in 30 minutes (Balb c mice [5]; 500 mg/kg, treated males): markedly less interest in burying marbles
expression of the six-microRNAs [6]: decreases not only in the blood but also in the sperm and hippocampus
